Paper PMC11091220, “Metabolism-driven in vitro/in vivo disconnect of an oral ERɑ VHL-PROTAC” (Communications Biology, 2024)

Assays:
[1] = molecular target: T1, ERα (Homo sapiens, UniProt P03372); test: Western blot analysis of ERα in MCF7 cells (dose response, MG132, VHL ligand and cpd 8 competition); format: cell-based
T1 construct: endogenous in cells; host or cells: MCF7 (also MCF7 engineered to express Cas9)
T1 sequence (P03372 1-595): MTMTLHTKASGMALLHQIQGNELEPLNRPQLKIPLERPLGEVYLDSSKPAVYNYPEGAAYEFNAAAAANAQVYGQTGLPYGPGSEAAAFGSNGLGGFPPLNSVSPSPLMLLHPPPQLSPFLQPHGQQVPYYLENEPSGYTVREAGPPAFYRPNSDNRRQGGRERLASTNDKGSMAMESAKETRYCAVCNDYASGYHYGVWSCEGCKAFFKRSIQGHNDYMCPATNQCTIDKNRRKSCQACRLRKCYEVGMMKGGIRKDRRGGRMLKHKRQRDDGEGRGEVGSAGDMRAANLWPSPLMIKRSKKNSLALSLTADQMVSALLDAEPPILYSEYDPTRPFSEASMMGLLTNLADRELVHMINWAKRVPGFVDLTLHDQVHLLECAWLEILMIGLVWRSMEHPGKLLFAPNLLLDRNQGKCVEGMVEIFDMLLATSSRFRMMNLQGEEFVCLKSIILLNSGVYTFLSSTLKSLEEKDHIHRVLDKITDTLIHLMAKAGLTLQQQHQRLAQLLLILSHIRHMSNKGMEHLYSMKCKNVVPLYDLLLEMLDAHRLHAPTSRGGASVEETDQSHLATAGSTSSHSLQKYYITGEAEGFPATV
Description: Fig. 2 AZ’6421 degrades ERα through a PROTAC mechanism of action. a Immunoblots for ERα and vinculin loading control. MCF7 cells were pre-treated with 10 µM MG132 or DMSO control for 1 h before being exposed to DMSO, AZ’6421, or fulvestrant, at the concentrations indicated, for a further 7 h. A representative immunoblot from two biological replicates is shown. b As in a but cells were pre-treated with 10 µM VHL ligand (Ac-(S,R,S)-AHPC) prior to addition of DMSO, AZ’6421 or fulvestrant. c MCF7 cells expressing BFP-Cas9 were reverse transfected with the crRNA:tracrRNA pool targeting VHL for 72 h prior to treatment with increasing concentrations of AZ’6421 for a further 24 h. Cells were then fixed, stained, and imaged to assess ERα and Cas9 expression. ERα levels in Cas9 positive cells were normalised to unedited cells (0) and ESR1 KO cells (-100). Data points are from three independent experiments, points in bold represent the mean. d Structure of AZ’6421 and the (S)-prolinol epimer, 7. e Concentration-response curves for AZ’6421 and 7. ERα levels in MCF7 cells were assessed using an immunofluorescence endpoint after 24 h exposure to compound. […] Data points are from 5 (AZ'6421) or 2 (Cpd 7) independent experiments with technical duplicates performed for each experiment, bold points represent the mean. All concentration-response curves were plotted using nonlinear regression analysis in GraphPad Prism.
Fig. 6 Assessment of the cause of the in vitro/in vivo disconnect. a CTC174 tumours were disaggregated into single cells, seeded in 6-well plates and dosed with increasing concentrations of AZ’6421 for 24 hours before being lysed. ERα levels were assessed by immunoblotting. ERɑ levels normalised to vinculin and expressed as % DMSO control are shown underneath the immunoblot. b Representative IHC images taken from sections of tumour treated with vehicle control or 100 mg/kg AZ’6421 for 4 days. Sections were stained with an antibody against ERα (Sp1, Ventana). c Schematic of potential sites of metabolism d Free plasma exposure of AZ’6421 and its metabolite 8 following 100 mg/kg dosing of AZ’6421. e Concentration-response curves for AZ’6421 and metabolite 8. ERα levels in MCF7 cells were assessed using an immunofluorescence endpoint after 24 h exposure to compound. […] Points in bold represent the mean. f Effect of metabolite 8 on ERα degradation in CTC174 cells cultured ex vivo. […] MCF7 cells were pre-treated with 10 µM cpd 8 or DMSO control for 1 h before being exposed to DMSO, AZ’6421 or fulvestrant, at the concentrations indicated, for a further 24 h. A representative immunoblot from two biological replicates is shown. TEXT PRINTED IN THE PICTURE: (a) AZ'6421: ERα % of DMSO control: 20.3 (1 nM); ERα % of DMSO control: 12.0 (10 nM); ERα % of DMSO control: 4.1 (30 nM); ERα % of DMSO control: 4.2 (100 nM); ERα % of DMSO control: 3.9 (300 nM); ERα % of DMSO control: 3.6 (1000 nM)
Cells were seeded into 12-well tissue culture-treated plates at 0.5 x 10^6 cells/well in phenol red-free RPMI containing 5% (v/v) charcoal-stripped FBS (F6765, Sigma) and left to adhere overnight. In experiments to detect agonism or for SILAC experiments, FBS was double stripped using activated charcoal. Cells were treated with compound or 0.1% DMSO vehicle control for the times indicated prior to being lysed in Pierce RIPA buffer (Thermo Scientific), supplemented with protease and phosphatase inhibitors. Expression levels of proteins were determined by standard western blotting techniques (BioRad 4%-12% Bis-Tris gels). Antibodies were diluted in 5% milk-PBS-Tween and protein levels were detected using Pierce WestDura chemiluminescent reagents followed by visualisation and quantification on a Syngene ChemiGenius Imager. Where blots were quantified, protein levels were normalised to beta-actin or vinculin control and expressed as % of vehicle control.

[2] = Mouse hepatocyte intrinsic clearance; format: in vitro ADME
Description: Livers from CD-1 male mice weighing 30-35 g were digested and perfused using D-Hanks solution containing EDTA or collagenase. Once digested the liver was transferred to a petri dish and the hepatocytes were prepared by washing and centrifuging with a Leibovitz-15 medium containing 50% isotonic percoll. A cell viability >80% was required to progress the cells. The test compound was prepared to 10 mM in 100% DMSO and further diluted to 100 μM in 100% acetonitrile. The hepatocyte incubations were prepared in Leibovitz’s L-15 Medium pH 7.4 containing 1 million hepatocytes/mL and a final compound concentration of 1 µM. Cell viability was determined using a Cellometer Vision and >80% cell viability was required to proceed with the compound incubation. The compound/cell solution (250 µL) was incubated for 2 h at 37 °C and shaken at 900 rpm on an Eppendorf Thermomixer Comfort plate shaker. Samples (20 µL) were taken at 0.5, 5, 15, 30, 45, 60, 80, 100, and 120 min and quenched with 100 μL of 100% ice-cold acetonitrile. Samples were shaken at 800 rpm for 2 min and centrifuged at 4000 rpm for 20 min at 4 °C to pellet precipitated protein. The supernatant fraction was diluted 1:5 with deionised water, shaken at 1000 rpm for 2 min, and further diluted 1:1 with deionised water. Samples were analysed by LC-MS/MS[17].

Structure (SMILES): Cc1ncsc1-c1ccc(CNC(=O)[C@@H]2C[C@@H](O)CN2C(=O)[C@@H](NC(=O)COCCCOCCCOc2cc(F)c([C@@H]3c4[nH]c5ccccc5c4C[C@@H](C)N3CC(C)(C)F)c(F)c2)C(C)(C)C)cc1 [Compound 5]
- effect of MG132 pre-treatment on ERα degradation ([1]; 10 µM MG132 1 h, then compound 7 h, MCF7): attenuated ERα degradation
- effect of excess acetylated-(S,R,S)-AHPC pre-treatment on ERα degradation ([1]; 10 µM VHL ligand, MCF7): partially reduced ERα degradation
- effect of excess (10 µM) 8 on ERα degradation ([1]; MCF7, 100 and 300 nM, 24 h): reduce this degradation to levels achieved in the presence of 8 alone
- ERα degradation ([1]; MCF7, 100 and 300 nM, 24 h, western blot): near-complete degradation of ERα
- concentration giving maximal ERα degradation ([1]; MCF7, 24 hours, western blot): ≥ 10 nM
- remaining activity at 1 µM ([1]; MCF7, read-out: ERa % of control): 0.87%
- mouse hepatocytes stability [2]: 9 µL/min/x10^6 cells
- hepatocyte CLint at 1 µM ([2]; male, CD-1, mouse, hepatocytes, pH 7.4, read-out: muHeps (mouse hepatocytes) clearance): 9 µL/min/1e6 cells
- muHeps (mouse hepatocytes) clearance ([2]; mouse): 9.5 µL/min/1e6 cells
